# In US20020137929A1, “1 - (3-heterocyclylphenyl) isothiourea, -isourea, -guanidine and -amidine herbicidal agents” (Intellectual Property Department, BASF Aktiengesellschaft, priority 1998, published 2002):
# Tests used:
# CYPIR (Rice Flatsedge) = experiment: Preemergence weed control under flooded paddy conditions; assay type: in vivo, Cyperus iria; conditions: rated 3-4 weeks after treatment
# Summary of the method: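 Herbicidal effect is scored visually on a 0-9 scale against an untreated control, three to four weeks after compounds are pipetted into the flood water (1.5 to 3 cm deep) over seeds planted in silt loam at 0.5 cm depth. Rates: about 0.0313 to 0.500 kg/ha.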
# ECHCG (Barnyardgrass) = experiment: Postemergence herbicidal evaluation; assay type: in vivo, Echinochloa crus-galli; conditions: postemergence
# Summary of the method: (§1)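 First, seedlings were raised for around two weeks. Next, test material in 50/50 acetone/water containing 0.5% TWEEN 20 was sprayed through a nozzle at 40 psi, equivalent to about 0.0156–0.500 kg/ha. Finally, after 4–5 weeks in the greenhouse, plants were rated 0–9.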
# [1] = test system: TRZAWR (Wheat, Winter, cv Riband); experiment: Preemergence herbicidal evaluation; assay type: in vivo, Triticum aestivum; conditions: rated 4-5 weeks after treatment, rating scale 0-9
# Summary of the method: (§2)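 Steps: mix seeds into potting soil; plant atop ~1 inch soil; spray compound in aqueous acetone (~0.0156-0.500 kg/ha equivalent); maintain in greenhouse with watering; rate visually 0-9 versus control at 4-5 weeks.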
# ORYSAT (Rice, Tebonnet) [2] = experiment: Preemergence herbicidal evaluation; assay type: in vivo, Oryza sativa, (L.) Tebonnet; conditions: rated 4-5 weeks after treatment, rating scale 0-9
# Summary of the method: as §2
# [3] = test system: SAGPY (Arrowhead (Pygmaea)); experiment: Preemergence weed control under flooded paddy conditions; assay type: in vivo, Sagittaria pygmaea; conditions: rated 3-4 weeks after treatment
# Summary of the method: (§3)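 Seeds or propagules sown in top 0.5 cm of silt loam soil, flooded 1.5 to 3 cm above surface throughout. Compound in 50/50 v/v aqueous/acetone pipetted into flood water at about 0.0313 to 0.500 kg/ha. Visual 0-9 rating versus control after three to four weeks in greenhouse.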
# MOOVA (Monochoria) = experiment: as above; assay type: in vivo, Monochoria vaginalis; conditions: rated 3-4 weeks after treatment
# Summary of the method: as §3
# GALAP (Galium) = experiment: Preemergence herbicidal evaluation; assay type: in vivo, Galium aparine; conditions: rated 4-5 weeks after treatment, rating scale 0-9
# Summary of the method: as §2
# SETVI (Foxtail, Green) = experiment: Preemergence herbicidal evaluation; assay type: in vivo, Setaria viridis; conditions: rated 4-5 weeks after treatment, rating scale 0-9
# Summary of the method: as §2
# [4] = test system: CHEAL (Lambsquarters, Common); experiment: Postemergence herbicidal evaluation; assay type: in vivo, Chenopodium album; conditions: postemergence
# Summary of the method: as §1
# ZEAMX (Corn, Field) = experiment: Preemergence herbicidal evaluation; assay type: in vivo, Zea mays; conditions: rated 4-5 weeks after treatment, rating scale 0-9
# Summary of the method: as §2
# CASOB (Sicklepod) = experiment: Postemergence herbicidal evaluation; assay type: in vivo, Cassia obtusifolia; conditions: postemergence
# Summary of the method: as §1
# [5] = test system: GLXMAW (Soybean, Williams); experiment: Preemergence herbicidal evaluation; assay type: in vivo, Glycine max, (L.) Merr. cv Williams; conditions: rated 4-5 weeks after treatment, rating scale 0-9
# Summary of the method: as §2
# ORYSAT (Rice, Tebonnet) [6] = experiment: Postemergence herbicidal evaluation; assay type: in vivo, Oryza sativa, (L.) Tebonnet; conditions: postemergence
# Summary of the method: as §1
smiles,measurement,setting,value
"COc1cc(CN2C(=O)CSC2=Nc2cc(-n3c(=O)cc(C(F)(F)F)n(C)c3=O)c(F)cc2Cl)cc(OC)c1OC [Compound 140, 3-{4-Chloro-2-fluoro-5-{[3-(3,4,5-trimethoxybenzyl)-4-oxo-2-thiazolidinylidene]amino}phenyl}-1-methyl-6-(trifluoromethyl)-2,4(1H,3H)-pyrimidinedione]","herbicidal effect rating, CYPIR",CYPIR (Rice Flatsedge); 0.0313 kg/ha,4.0
same,"herbicidal effect rating, CYPIR",CYPIR (Rice Flatsedge); 0.0625 kg/ha,7.0
same,"herbicidal effect rating, CYPIR",CYPIR (Rice Flatsedge); 0.1250 kg/ha,9.0
same,"herbicidal effect rating, CYPIR",CYPIR (Rice Flatsedge); 0.2500 kg/ha,7.0
same,Herbicidal rating ECHCG,ECHCG (Barnyardgrass); rate 0.0156 kg/ha,0.0
same,Herbicidal rating ECHCG,ECHCG (Barnyardgrass); rate 0.0313 kg/ha,0.0
same,Herbicidal rating ECHCG,ECHCG (Barnyardgrass); rate 0.0625 kg/ha,0.0
same,Preemergence herbicidal rating TRZAWR,[1]; rate 0.0625 kg/ha,0.0
same,Preemergence herbicidal rating TRZAWR,[1]; rate 0.1250 kg/ha,0.0
same,Preemergence herbicidal rating TRZAWR,[1]; rate 0.2500 kg/ha,0.0
same,Preemergence herbicidal rating ORYSAT,"ORYSAT (Rice, Tebonnet) [2]; rate 0.0625 kg/ha",0.0
same,Preemergence herbicidal rating ORYSAT,"ORYSAT (Rice, Tebonnet) [2]; rate 0.1250 kg/ha",0.0
same,Preemergence herbicidal rating ORYSAT,"ORYSAT (Rice, Tebonnet) [2]; rate 0.2500 kg/ha",0.0
same,"herbicidal effect rating, SAGPY",[3]; 0.0313 kg/ha,2.0
same,"herbicidal effect rating, SAGPY",[3]; 0.0625 kg/ha,3.0
same,"herbicidal effect rating, SAGPY",[3]; 0.1250 kg/ha,4.0
same,"herbicidal effect rating, SAGPY",[3]; 0.2500 kg/ha,4.0
same,"herbicidal effect rating, MOOVA",MOOVA (Monochoria); 0.0313 kg/ha,4.0
same,"herbicidal effect rating, MOOVA",MOOVA (Monochoria); 0.0625 kg/ha,7.0
same,"herbicidal effect rating, MOOVA",MOOVA (Monochoria); 0.1250 kg/ha,9.0
same,"herbicidal effect rating, MOOVA",MOOVA (Monochoria); 0.2500 kg/ha,9.0
same,Preemergence herbicidal rating GALAP,GALAP (Galium); rate 0.0625 kg/ha,0.0
same,Preemergence herbicidal rating GALAP,GALAP (Galium); rate 0.1250 kg/ha,0.0
same,Preemergence herbicidal rating GALAP,GALAP (Galium); rate 0.2500 kg/ha,0.0
same,Preemergence herbicidal rating SETVI,"SETVI (Foxtail, Green); rate 0.0625 kg/ha",0.0
same,Preemergence herbicidal rating SETVI,"SETVI (Foxtail, Green); rate 0.1250 kg/ha",0.0
same,Preemergence herbicidal rating SETVI,"SETVI (Foxtail, Green); rate 0.2500 kg/ha",0.0
same,Herbicidal rating CHEAL,[4]; rate 0.0156 kg/ha,3.0
same,Herbicidal rating CHEAL,[4]; rate 0.0625 kg/ha,3.0
same,Preemergence herbicidal rating ZEAMX,"ZEAMX (Corn, Field); rate 0.0625 kg/ha",0.0
same,Preemergence herbicidal rating ZEAMX,"ZEAMX (Corn, Field); rate 0.1250 kg/ha",0.0
same,Preemergence herbicidal rating ZEAMX,"ZEAMX (Corn, Field); rate 0.2500 kg/ha",0.0
same,Herbicidal rating CASOB,CASOB (Sicklepod); rate 0.0156 kg/ha,0.0
same,Herbicidal rating CASOB,CASOB (Sicklepod); rate 0.0313 kg/ha,0.0
same,Herbicidal rating CASOB,CASOB (Sicklepod); rate 0.0625 kg/ha,0.0
same,Preemergence herbicidal rating GLXMAW,[5]; rate 0.0625 kg/ha,0.0
same,Preemergence herbicidal rating GLXMAW,[5]; rate 0.1250 kg/ha,0.0
same,Preemergence herbicidal rating GLXMAW,[5]; rate 0.2500 kg/ha,0.0
same,Herbicidal rating ORYSAT,"ORYSAT (Rice, Tebonnet) [6]; rate 0.0156 kg/ha",0.5
same,Herbicidal rating ORYSAT,"ORYSAT (Rice, Tebonnet) [6]; rate 0.0313 kg/ha",0.5
same,Herbicidal rating ORYSAT,"ORYSAT (Rice, Tebonnet) [6]; rate 0.0625 kg/ha",1.5
"Cn1c(C(F)(F)F)cc(=O)n(-c2cc(N=C3SCC(=O)N3Cc3ccc(C(F)(F)F)cc3)c(Cl)cc2F)c1=O [Compound 141, 3-{4-Chloro-2-fluoro-5-{{3-[p-(trifluoromethyl)benzyl]-4-oxo-2-thiazolidinylidene}-amino}phenyl}-1-methyl-6-(trifluoromethyl)-2,4 (1H, 3H)-pyrimidinedione]","herbicidal effect rating, CYPIR",CYPIR (Rice Flatsedge); 0.0313 kg/ha,4.0
same,"herbicidal effect rating, CYPIR",CYPIR (Rice Flatsedge); 0.0625 kg/ha,5.0
same,"herbicidal effect rating, CYPIR",CYPIR (Rice Flatsedge); 0.1250 kg/ha,6.0
same,"herbicidal effect rating, CYPIR",CYPIR (Rice Flatsedge); 0.2500 kg/ha,6.0
same,Herbicidal rating ECHCG,ECHCG (Barnyardgrass); rate 0.0156 kg/ha,0.0
same,Herbicidal rating ECHCG,ECHCG (Barnyardgrass); rate 0.0313 kg/ha,0.0
same,Herbicidal rating ECHCG,ECHCG (Barnyardgrass); rate 0.0625 kg/ha,0.0
same,Preemergence herbicidal rating TRZAWR,[1]; rate 0.0156 kg/ha,0.0
same,Preemergence herbicidal rating TRZAWR,[1]; rate 0.0313 kg/ha,0.0
same,Preemergence herbicidal rating TRZAWR,[1]; rate 0.0625 kg/ha,0.0
same,Preemergence herbicidal rating TRZAWR,[1]; rate 0.1250 kg/ha,0.0
same,Preemergence herbicidal rating TRZAWR,[1]; rate 0.2500 kg/ha,0.0
same,Preemergence herbicidal rating ORYSAT,"ORYSAT (Rice, Tebonnet) [2]; rate 0.0156 kg/ha",0.0
same,Preemergence herbicidal rating ORYSAT,"ORYSAT (Rice, Tebonnet) [2]; rate 0.0313 kg/ha",0.0
same,Preemergence herbicidal rating ORYSAT,"ORYSAT (Rice, Tebonnet) [2]; rate 0.0625 kg/ha",0.0
same,Preemergence herbicidal rating ORYSAT,"ORYSAT (Rice, Tebonnet) [2]; rate 0.1250 kg/ha",0.0
same,Preemergence herbicidal rating ORYSAT,"ORYSAT (Rice, Tebonnet) [2]; rate 0.2500 kg/ha",0.0
same,"herbicidal effect rating, SAGPY",[3]; 0.0313 kg/ha,4.0
same,"herbicidal effect rating, SAGPY",[3]; 0.0625 kg/ha,5.0
same,"herbicidal effect rating, SAGPY",[3]; 0.1250 kg/ha,5.0
same,"herbicidal effect rating, SAGPY",[3]; 0.2500 kg/ha,6.0
same,"herbicidal effect rating, MOOVA",MOOVA (Monochoria); 0.0313 kg/ha,7.0
same,"herbicidal effect rating, MOOVA",MOOVA (Monochoria); 0.0625 kg/ha,8.0
same,"herbicidal effect rating, MOOVA",MOOVA (Monochoria); 0.1250 kg/ha,8.0
same,"herbicidal effect rating, MOOVA",MOOVA (Monochoria); 0.2500 kg/ha,9.0
same,Preemergence herbicidal rating GALAP,GALAP (Galium); rate 0.0156 kg/ha,0.0
same,Preemergence herbicidal rating GALAP,GALAP (Galium); rate 0.0313 kg/ha,0.0
same,Preemergence herbicidal rating GALAP,GALAP (Galium); rate 0.0625 kg/ha,0.0
same,Preemergence herbicidal rating GALAP,GALAP (Galium); rate 0.1250 kg/ha,0.0
same,Preemergence herbicidal rating GALAP,GALAP (Galium); rate 0.2500 kg/ha,0.0
same,Preemergence herbicidal rating SETVI,"SETVI (Foxtail, Green); rate 0.0156 kg/ha",0.0
same,Preemergence herbicidal rating SETVI,"SETVI (Foxtail, Green); rate 0.0313 kg/ha",0.0
same,Preemergence herbicidal rating SETVI,"SETVI (Foxtail, Green); rate 0.0625 kg/ha",0.0
same,Preemergence herbicidal rating SETVI,"SETVI (Foxtail, Green); rate 0.1250 kg/ha",0.0
same,Preemergence herbicidal rating SETVI,"SETVI (Foxtail, Green); rate 0.2500 kg/ha",4.0
same,Herbicidal rating CHEAL,[4]; rate 0.0156 kg/ha,3.0
same,Herbicidal rating CHEAL,[4]; rate 0.0313 kg/ha,5.0
same,Herbicidal rating CHEAL,[4]; rate 0.0625 kg/ha,9.0
same,Preemergence herbicidal rating ZEAMX,"ZEAMX (Corn, Field); rate 0.0156 kg/ha",0.0
same,Preemergence herbicidal rating ZEAMX,"ZEAMX (Corn, Field); rate 0.0313 kg/ha",0.0
same,Preemergence herbicidal rating ZEAMX,"ZEAMX (Corn, Field); rate 0.0625 kg/ha",0.0
same,Preemergence herbicidal rating ZEAMX,"ZEAMX (Corn, Field); rate 0.1250 kg/ha",0.0
same,Preemergence herbicidal rating ZEAMX,"ZEAMX (Corn, Field); rate 0.2500 kg/ha",2.0
same,Herbicidal rating CASOB,CASOB (Sicklepod); rate 0.0156 kg/ha,0.0
same,Herbicidal rating CASOB,CASOB (Sicklepod); rate 0.0313 kg/ha,0.0
same,Herbicidal rating CASOB,CASOB (Sicklepod); rate 0.0625 kg/ha,0.0
same,Preemergence herbicidal rating GLXMAW,[5]; rate 0.0156 kg/ha,0.0
same,Preemergence herbicidal rating GLXMAW,[5]; rate 0.0313 kg/ha,0.0
same,Preemergence herbicidal rating GLXMAW,[5]; rate 0.0625 kg/ha,0.0
same,Preemergence herbicidal rating GLXMAW,[5]; rate 0.1250 kg/ha,0.0
same,Preemergence herbicidal rating GLXMAW,[5]; rate 0.2500 kg/ha,3.0
same,Herbicidal rating ORYSAT,"ORYSAT (Rice, Tebonnet) [6]; rate 0.0156 kg/ha",0.5
same,Herbicidal rating ORYSAT,"ORYSAT (Rice, Tebonnet) [6]; rate 0.0313 kg/ha",1.5
same,Herbicidal rating ORYSAT,"ORYSAT (Rice, Tebonnet) [6]; rate 0.0625 kg/ha",2.0
